Test results taken from patent US9149038B2, “4-amino-6-(heterocyclic)picolinates and 6-amino-2-(heterocyclic)pyrimidine-4-carboxylates and their use as herbicides” (Dow AgroSciences LLC, priority 2013, dated 2015).
Like-named read-outs stand apart in the source and are kept apart here.

How the values were obtained:
[1] = test system: Key Broadleaf Weed and Crop Species; test: Post-Emergent Test II: postemergent herbicidal activity, visual rating after 14 d (Table 7); type: in vivo; details: post-emergence, 336 h; for pest or weed control at 35 g/ha: 35 g ai/ha; for pest or weed control at 70 g/ha: 70 g ai/ha; for pest or weed control at 140 g/ha: 140 g ai/ha
In short: (§1)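 Visual scoring at 14 d, 0 (no injury) to 100 (complete kill), relative to untreated plants. Postemergent overhead track-sprayer application, 187 L/ha, at a top rate plus serial ½×–1/16× rates, to plants grown 7–21 d at about 23–29° C day under a 15 h photoperiod, then subirrigated.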

[2] = test system: Key Grass and Sedge Weeds as well as Grass Crops; test: Post-Emergent Test II: postemergent herbicidal activity, visual rating after 14 d (Table 8); type: in vivo; details: post-emergence, 336 h; for pest or weed control at 35 g/ha: 35 g ai/ha; for pest or weed control at 70 g/ha: 70 g ai/ha; for pest or weed control at 140 g/ha: 140 g ai/ha
In short: as §1

[3] = lambsquarters (Chenopodium album), read-out: Visual Growth Reduction (%) 14 Days After Application CHEAL
[4] = oilseed rape, canola (Brassica napus), read-out: Visual Growth Reduction (%) 14 Days After Application BRSNN
[5] = redroot pigweed (Amaranthus retroflexus), read-out: Visual Growth Reduction (%) 14 Days After Application AMARE
[6] = sunflower (Helianthus annuus), read-out: Visual Growth Reduction (%) 14 Days After Application HELAN
[7] = velvetleaf (Abutilon theophrasti), read-out: Visual Growth Reduction (%) 14 Days After Application ABUTH
[8] = wild poinsettia (Euphorbia heterophylla), read-out: Visual Growth Reduction (%) 14 Days After Application EPHHL
[9] = barnyardgrass (Echinochloa crus-galli), read-out: Visual Growth Reduction (%) 14 Days After Application ECHCG
[10] = giant foxtail (Setaria faberi), read-out: Visual Growth Reduction (%) 14 Days After Application SETFA
[11] = maize, corn (Zea mays), read-out: Visual Growth Reduction (%) 14 Days After Application ZEAMX
[12] = rice (Oryza sativa), read-out: Visual Growth Reduction (%) 14 Days After Application ORYSA
[13] = wheat, spring (Triticum aestivum), read-out: Visual Growth Reduction (%) 14 Days After Application TRZAS
[14] = yellow nutsedge (Cyperus esculentus), read-out: Visual Growth Reduction (%) 14 Days After Application CYPES

SMILES | pest or weed control at 35 g/ha [1, 3] [%] | pest or weed control at 70 g/ha [1, 3] [%] | pest or weed control at 140 g/ha [1, 3] [%] | pest or weed control at 35 g/ha [1, 4] [%] | pest or weed control at 70 g/ha [1, 4] [%] | pest or weed control at 140 g/ha [1, 4] [%] | pest or weed control at 35 g/ha [1, 5] [%] | pest or weed control at 70 g/ha [1, 5] [%] | pest or weed control at 140 g/ha [1, 5] [%] | pest or weed control at 35 g/ha [1, 6] [%] | pest or weed control at 70 g/ha [1, 6] [%] | pest or weed control at 140 g/ha [1, 6] [%] | pest or weed control at 35 g/ha [1, 7] [%] | pest or weed control at 70 g/ha [1, 7] [%] | pest or weed control at 140 g/ha [1, 7] [%] | pest or weed control at 35 g/ha [1, 8] [%] | pest or weed control at 70 g/ha [1, 8] [%] | pest or weed control at 140 g/ha [1, 8] [%] | pest or weed control at 35 g/ha [2, 9] [%] | pest or weed control at 70 g/ha [2, 9] [%] | also measured
C=Cc1c(C(=O)OC)nc(-c2cc3c(cc2F)OCO3)c(F)c1N [Compound 31] | 0 to 29 | 0 to 29 | 0 to 29 | 0 to 29 | 0 to 29 | 45 to 59 | 85 to 94 | 85 to 94 | 95 to 100 | 45 to 59 | 85 to 94 | 85 to 94 | 0 to 29 | 0 to 29 | 45 to 59 | 95 to 100 | 95 to 100 | 95 to 100 | 0 to 29 | 60 to 74 | pest or weed control at 140 g/ha [2, 9]: 75 to 84%; pest or weed control at 35 g/ha [2, 10]: 0 to 29%; pest or weed control at 70 g/ha [2, 10]: 0 to 29%; pest or weed control at 140 g/ha [2, 10]: 0 to 29%; pest or weed control at 35 g/ha [2, 11]: 0 to 29%; pest or weed control at 70 g/ha [2, 11]: 30 to 44%; pest or weed control at 140 g/ha [2, 11]: 45 to 59%; pest or weed control at 35 g/ha [2, 12]: 0 to 29%; pest or weed control at 70 g/ha [2, 12]: 0 to 29%; pest or weed control at 140 g/ha [2, 12]: 0 to 29%; pest or weed control at 35 g/ha [2, 13]: 0 to 29%; pest or weed control at 70 g/ha [2, 13]: 0 to 29%; pest or weed control at 140 g/ha [2, 13]: 0 to 29%; pest or weed control at 35 g/ha [2, 14]: 0 to 29%; pest or weed control at 70 g/ha [2, 14]: 0 to 29%; pest or weed control at 140 g/ha [2, 14]: 0 to 29%
COC(=O)c1nc(-c2ccc3c(c2)OC(F)(F)O3)c(Cl)c(N)c1Cl [Compound 1] | 0 to 29 | 0 to 29 | 0 to 29 | 0 to 29 | 0 to 29 | 0 to 29 | 0 to 29 | 0 to 29 | 0 to 29 | 85 to 94 | 85 to 94 | 85 to 94 | 0 to 29 | 0 to 29 | 0 to 29 | 0 to 29 | 0 to 29 | 0 to 29 | 45 to 59 | 60 to 74 | pest or weed control at 140 g/ha [2, 9]: 60 to 74%; pest or weed control at 35 g/ha [2, 10]: 0 to 29%; pest or weed control at 70 g/ha [2, 10]: 45 to 59%; pest or weed control at 140 g/ha [2, 10]: 45 to 59%; pest or weed control at 35 g/ha [2, 11]: 60 to 74%; pest or weed control at 70 g/ha [2, 11]: 60 to 74%; pest or weed control at 140 g/ha [2, 11]: 60 to 74%; pest or weed control at 35 g/ha [2, 12]: 0 to 29%; pest or weed control at 70 g/ha [2, 12]: 0 to 29%; pest or weed control at 140 g/ha [2, 12]: 0 to 29%; pest or weed control at 35 g/ha [2, 13]: 0 to 29%; pest or weed control at 70 g/ha [2, 13]: 0 to 29%; pest or weed control at 140 g/ha [2, 13]: 0 to 29%; pest or weed control at 35 g/ha [2, 14]: 0 to 29%; pest or weed control at 70 g/ha [2, 14]: 0 to 29%; pest or weed control at 140 g/ha [2, 14]: 0 to 29%
C=Cc1c(C(=O)OC)nc(-c2cc3c(cc2F)OC(F)(F)O3)c(F)c1N [Compound 27] | 0 to 29 | 0 to 29 | 0 to 29 | 0 to 29 | 0 to 29 | 0 to 29 | 0 to 29 | 0 to 29 | 0 to 29 | 30 to 44 | 75 to 84 | 85 to 94 | 0 to 29 | 0 to 29 | 0 to 29 | 0 to 29 | 0 to 29 | 0 to 29 | 0 to 29 | 0 to 29 | pest or weed control at 140 g/ha [2, 9]: 0 to 29%; pest or weed control at 35 g/ha [2, 10]: 0 to 29%; pest or weed control at 70 g/ha [2, 10]: 0 to 29%; pest or weed control at 140 g/ha [2, 10]: 0 to 29%; pest or weed control at 35 g/ha [2, 11]: 0 to 29%; pest or weed control at 70 g/ha [2, 11]: 0 to 29%; pest or weed control at 140 g/ha [2, 11]: 30 to 44%; pest or weed control at 35 g/ha [2, 12]: 0 to 29%; pest or weed control at 70 g/ha [2, 12]: 0 to 29%; pest or weed control at 140 g/ha [2, 12]: 0 to 29%; pest or weed control at 35 g/ha [2, 13]: 0 to 29%; pest or weed control at 70 g/ha [2, 13]: 0 to 29%; pest or weed control at 140 g/ha [2, 13]: 0 to 29%; pest or weed control at 35 g/ha [2, 14]: 0 to 29%; pest or weed control at 70 g/ha [2, 14]: 0 to 29%; pest or weed control at 140 g/ha [2, 14]: 0 to 29%
